Data: US20100267561A1, “HERBICIDAL PYRIDAZINONE DERIVATIVES” (priority 2007, published 2010)

Assays:
Type in all cases: in vivo
[1] = test system: common (oilseed) sunflower (Helianthus annuus); assay: Test B pre-/postemergence plant response; conditions: Preemergence
How it was run: (§1)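 Visual scoring from 0 (no effect) to 100 (complete control) against untreated controls was done 13 to 15 days after greenhouse treatment. Chemicals were formulated in a surfactant-containing non-phytotoxic solvent and applied to soil preemergence or to 1- to 4-leaf (2-18 cm) plants postemergence.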

corn (Zea mays) = assay: Test B pre-/postemergence plant response; conditions: for Corn plant response rating: 8 g ai/ha
How it was run: as §1

[2] = test system: downy bromegrass (Bromus tectorum); assay: Test B pre-/postemergence plant response; conditions: for Bromegrass, Downy plant response rating: 8 g ai/ha
How it was run: as §1

[3] = test system: green foxtail (Setaria viridis); assay: Test B pre-/postemergence plant response; conditions: for Foxtail, Green plant response rating: 8 g ai/ha
How it was run: as §1

[4] = test system: large crabgrass (Digitaria sanguinalis); assay: Test B pre-/postemergence plant response; conditions: for Crabgrass, Large plant response rating: 8 g ai/ha
How it was run: as §1

[5] = test system: morningglory (Ipomoea coccinea); assay: Test B pre-/postemergence plant response; conditions: for Morningglory plant response rating: 8 g ai/ha
How it was run: as §1

[6] = test system: surinam grass (Brachiaria decumbens); assay: Test B pre-/postemergence plant response; conditions: for Surinam Grass plant response rating: 8 g ai/ha
How it was run: as §1

[7] = test system: velvetleaf (Abutilon theophrasti); assay: Test B pre-/postemergence plant response; conditions: for Velvetleaf plant response rating: 8 g ai/ha
How it was run: as §1

[8] = test system: wheat (Triticum aestivum); assay: Test B pre-/postemergence plant response; conditions: for Wheat plant response rating: 8 g ai/ha
How it was run: as §1

wild oat (Avena fatua) = assay: Test B pre-/postemergence plant response; conditions: for Oat, Wild plant response rating: 8 g ai/ha
How it was run: as §1

[9] = test system: barnyardgrass (Echinochloa crus-galli); assay: Test B flooded paddy test plant response
How it was run: (§2)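 Step one: raise plants to 2 leaves. Step two: flood pots 3 cm over the soil and apply compound into the water, keeping this depth. Step three: after 13–15 greenhouse days, score visually versus controls, 0–100, where 100 means complete control.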

[10] = test system: ducksalad (Heteranthera limosa); assay: Test B flooded paddy test plant response
How it was run: as §2

rice (Oryza sativa) = assay: Test B flooded paddy test plant response
How it was run: as §2

[11] = test system: umbrella sedge (Cyperus difformis); assay: Test B flooded paddy test plant response
How it was run: as §2

[12] = Postemergence, 16 g ai/ha, scale 0 to 100
[13] = Postemergence, 31 g ai/ha, scale 0 to 100, 0 no effect, 100 complete control
[14] = Postemergence, 62 g ai/ha, scale 0 to 100, 0 no effect, 100 complete control
[15] = Preemergence, 16 g ai/ha, scale 0 to 100 (0 no effect, 100 complete control)
[16] = Preemergence, 31 g ai/ha, 0 to 100 scale, 0 no effect, 100 complete control
[17] = Preemergence, 62 g ai/ha, scale 0 to 100
[18] = Flood (flooded paddy test), 62 g ai/ha, scale 0 to 100, 0 no effect, 100 complete control
[19] = Flood (flooded paddy test), 125 g ai/ha, scale 0 to 100, 0 no effect, 100 complete control
[20] = Flood (flooded paddy test), 250 g ai/ha, scale 0 to 100, 0 no effect, 100 complete control
[21] = Flood, 31 g ai/ha, scale 0 to 100

## COC(=O)Oc1cnn(C)c(=O)c1-n1nc(-c2ccc(Cl)cc2)cc1C [Compound 33]
[1]; 16 g ai/ha, scale 0 to 100 (0 no effect, 100 complete control)
  Plant response rating, Sunflower: 0
[1]; 31 g ai/ha, 0 to 100 scale, 0 no effect, 100 complete control
  Plant response rating, Sunflower: 0
[1]; 62 g ai/ha, scale 0 to 100
  Plant response rating, Sunflower: 0
[1]; 8 g ai/ha, scale 0 to 100
  Sunflower plant response rating: 0
Corn (Zea mays); postemergence, 0-100 scale
  Corn plant response rating: 80
Corn (Zea mays); [12]
  Plant response rating, Corn: 95
Corn (Zea mays); [13]
  Plant response rating, Corn: 100
Corn (Zea mays); [14]
  Plant response rating, Corn: 100
Corn (Zea mays); [15]
  Plant response rating, Corn: 85
Corn (Zea mays); [16]
  Plant response rating, Corn: 90
Corn (Zea mays); [17]
  Plant response rating, Corn: 95
Corn (Zea mays); Preemergence, scale 0 to 100
  Corn plant response rating: 50
[2]; postemergence, 0-100 scale
  Bromegrass, Downy plant response rating: 5
[2]; [12]
  Plant response rating, Bromegrass, Downy: 50
[2]; [13]
  Plant response rating, Bromegrass, Downy: 70
[2]; [14]
  Plant response rating, Bromegrass, Downy: 80
[2]; [15]
  Plant response rating, Bromegrass, Downy: 0
[2]; [16]
  Plant response rating, Bromegrass, Downy: 80
[2]; [17]
  Plant response rating, Bromegrass, Downy: 100
[2]; Preemergence, scale 0 to 100
  Bromegrass, Downy plant response rating: 0
[3]; postemergence, 0-100 scale
  Foxtail, Green plant response rating: 85
[3]; [12]
  Plant response rating, Foxtail, Green: 85
[3]; [13]
  Plant response rating, Foxtail, Green: 100
[3]; [14]
  Plant response rating, Foxtail, Green: 100
[3]; [15]
  Plant response rating, Foxtail, Green: 100
[3]; [16]
  Plant response rating, Foxtail, Green: 100
[3]; [17]
  Plant response rating, Foxtail, Green: 100
[3]; Preemergence, scale 0 to 100
  Foxtail, Green plant response rating: 100
[4]; postemergence, 0-100 scale
  Crabgrass, Large plant response rating: 70
[4]; [12]
  Plant response rating, Crabgrass, Large: 90
[4]; [13]
  Plant response rating, Crabgrass, Large: 90
[4]; [14]
  Plant response rating, Crabgrass, Large: 100
[4]; [15]
  Plant response rating, Crabgrass, Large: 95
[4]; [16]
  Plant response rating, Crabgrass, Large: 95
[4]; [17]
  Plant response rating, Crabgrass, Large: 98
[4]; Preemergence, scale 0 to 100
  Crabgrass, Large plant response rating: 70
[5]; postemergence, 0-100 scale
  Morningglory plant response rating: 0
[5]; [12]
  Plant response rating, Morningglory: 0
[5]; [13]
  Plant response rating, Morningglory: 0
[5]; [14]
  Plant response rating, Morningglory: 0
[5]; [15]
  Plant response rating, Morningglory: 0
[5]; [16]
  Plant response rating, Morningglory: 0
[5]; [17]
  Plant response rating, Morningglory: 0
[5]; Preemergence, scale 0 to 100
  Morningglory plant response rating: 0
[6]; postemergence, 0-100 scale
  Surinam Grass plant response rating: 85
[6]; [12]
  Plant response rating, Surinam Grass: 100
[6]; [14]
  Plant response rating, Surinam Grass: 100
[6]; [15]
  Plant response rating, Surinam Grass: 90
[6]; [16]
  Plant response rating, Surinam Grass: 98
[6]; [17]
  Plant response rating, Surinam Grass: 100
[6]; Preemergence, scale 0 to 100
  Surinam Grass plant response rating: 75
[7]; postemergence, 0-100 scale
  Velvetleaf plant response rating: 0
[7]; [12]
  Plant response rating, Velvetleaf: 0
[7]; [14]
  Plant response rating, Velvetleaf: 5
[7]; [15]
  Plant response rating, Velvetleaf: 0
[7]; [16]
  Plant response rating, Velvetleaf: 0
[7]; Preemergence, scale 0 to 100
  Velvetleaf plant response rating: 0
[8]; postemergence, 0-100 scale
  Wheat plant response rating: 20
[8]; [12]
  Plant response rating, Wheat: 70
[8]; [14]
  Plant response rating, Wheat: 98
[8]; [15]
  Plant response rating, Wheat: 0
[8]; [16]
  Plant response rating, Wheat: 50
[8]; [17]
  Plant response rating, Wheat: 80
[8]; Preemergence, scale 0 to 100
  Wheat plant response rating: 0
Wild oat (Avena fatua); postemergence, 0-100 scale
  Oat, Wild plant response rating: 90
Wild oat (Avena fatua); [12]
  Plant response rating, Oat, Wild: 95
Wild oat (Avena fatua); [13]
  Plant response rating, Oat, Wild: 95
Wild oat (Avena fatua); [14]
  Plant response rating, Oat, Wild: 98
Wild oat (Avena fatua); [15]
  Plant response rating, Oat, Wild: 80
Wild oat (Avena fatua); [16]
  Plant response rating, Oat, Wild: 80
Wild oat (Avena fatua); [17]
  Plant response rating, Oat, Wild: 90
Wild oat (Avena fatua); Preemergence, scale 0 to 100
  Oat, Wild plant response rating: 70
[9]; [18]
  Plant response rating, Barnyardgrass: 60
[9]; [19]
  Plant response rating, Barnyardgrass: 85
[9]; [20]
  Plant response rating, Barnyardgrass: 100
[9]; [21]
  Plant response rating, Barnyardgrass: 30
[10]; [18]
  Plant response rating, Ducksalad: 0
[10]; [19]
  Plant response rating, Ducksalad: 40
[10]; [20]
  Plant response rating, Ducksalad: 50
[10]; [21]
  Plant response rating, Ducksalad: 0
Rice (Oryza sativa); [18]
  Plant response rating, Rice: 65
Rice (Oryza sativa); [19]
  Plant response rating, Rice: 75
Rice (Oryza sativa); [20]
  Plant response rating, Rice: 80
Rice (Oryza sativa); [21]
  Plant response rating, Rice: 30
[11]; [18]
  Plant response rating, Sedge, Umbrella: 20
[11]; [19]
  Plant response rating, Sedge, Umbrella: 35
[11]; [20]
  Plant response rating, Sedge, Umbrella: 60
[11]; [21]
  Plant response rating, Sedge, Umbrella: 0
